{"source": "patent US5326694A", "about": "“Process for synthesizing human H2-prorelaxin, human H2-relaxin and fusion proteins thereof” (Howard Florey Institute of Experimental Physiology and …, priority 1982, dated 1994)", "system": "spontaneous contractions of the rat uterus", "test": "rat uterine contractility assay (Wiqvist & Paul)", "format": "cell-based", "method": "Using the above conditions chain combination yields from 1.5 to 6.0% have been achieved as measured by biological activity in the rat uterine contractility assay of Wiqvist & Paul (Acta Endocrinol., 29, 135-136, 1958).\nHuman relaxin H2 [S-thioethyl Cys^10,11,15 ] A(1-24) (4.2 mg dry wt., 2.4 mg peptide by amino acid analysis, 0.84 μmole) was dissolved in 500 μl of 0.1M glycine buffer pH 10.5 in a 3 ml stoppered plastic centrifuge tube. Human relaxin H2 [S-sulfo Cys^10,11 ] B(-1-24) (1.60 mg, 1.60 mg peptide by amino acid analysis, 0.33 μmole) dissolved in 200 μl of 0.1M glycine buffer pH 10.5 was added and the mixture agitated. An aliquot (23.0 μl, 2.21 μmole DTT) of a stock solution of dithithreitol (DTT) made up in 0.1M glycine buffer pH 10.5 (0.96 μmole DTT in 10 μl) was added to the peptide solution and following a brief agitation the reaction mixture was allowed to stand at 4° C. for 24 hours open to the air. The mixture was then centrifuged and aliquots of the supernatant solution tested for relaxin biological activity in the rat uterine contractility assay.\nThe synthetic S-sulfonated and S-thioethyl H2 human relaxin A(1-24) peptides were coupled to S-thioethyl H2 human relaxin B(-1-32) using the same chain combination procedures described previously for the shortened B-chain (-1-24). […]", "note": "Ends that are not written are not given here.", "data": [{"substance": "hRLX A(1-24)-B(-1-32): Authentic human relaxin H2: synthetic A chain (1-24) combined with full length B chain (-1-32) (Relaxin B chain DSWMEEVIKLCGRELVRAQIAICGMSTWS; Relaxin A chain QLYSALANKCCHVGCTKRSLARFC; ends and bridges not checked; cysteine pairing not given here; UniProt P04090 25-53; P04090 162-185, looked up)", "values": [{"measurement": "inhibition of uterine contractions by a 100 μl aliquot", "setting": "100 μl aliquot of chain combination mixture, compared to native pig relaxin A22 B31 standard", "result": "completely inhibited uterine contractions"}, {"measurement": "inhibition of the spontaneous contractions of the rat uterus by aliquots of the chain combination reaction mixture", "setting": "aliquots of supernatant of chain combination mixture", "result": "inhibited the spontaneous contractions of the rat uterus in a dose-related manner"}]}]}
